Assay results taken from article PMC9945734 (BMC Medicine, 2023).

Legend:
[1] = test system: MYBL2 promoter; assay: ChIP assay of KLF5 binding to the MYBL2 promoter; type: cell-based, human; conditions: PC-3-KQ cells treated for 48 h
Experimental: ChIP assay was performed using the SimpleChIP Enzymatic Chromatin IP kit (Cat #: 9003s, Cell Signaling Technology) according to the manufacturer's instructions. Briefly, cells were treated with 1% formaldehyde for 10 min for cross-linking, quenched with glycine for 5 min at room temperature, collected, and digested with micrococcal nuclease for 20 min at 37°C. After stopping the reaction by adding EDTA, DNA was fragmented by sonication, and the extracts were incubated with KLF5 antibody (Cat #: 21017-1-AP, Proteintech) or IgG (Cat #: 2729P, Cell Signaling Technology). […]

[2] = test system: RAW264.7 cells; assay: CCK-8 cell viability assay; type: cell-based; conditions: concentrations smaller than 25 μM; 48 h
Experimental: According to the manufacturer's instructions, cell viability was measured using a kit from Beyotime Biotechnology. Briefly, cells were seeded onto 96-well plates at 5 × 10^3 cells per well, incubated overnight, and then treated for 48 h with drugs at 0, 0.02, 0.05, 0.14, 0.41, 1.23, 3.7, 11.1, 33.3, and 100 μM. […] At the end of drug treatment, the medium was removed, the CCK-8 solution was added into each well at 100 μL/well and incubated for 1.5 h at 37°C, and the optical density (OD) was measured at 450 nm using a microplate reader (BioTek).

[3] = test system: PC-3 (KLF5 null) cells expressing KLF5; assay: CCK-8 cell viability assay; type: cell-based; conditions: Homo sapiens, CCK-8, 48 h
Experimental: (§1) According to the manufacturer's instructions, cell viability was measured using a kit from Beyotime Biotechnology. Briefly, cells were seeded onto 96-well plates at 5 × 10^3 cells per well, incubated overnight, and then treated for 48 h with drugs at 0, 0.02, 0.05, 0.14, 0.41, 1.23, 3.7, 11.1, 33.3, and 100 μM. Four drugs were analyzed: furagin, nifuratel, nitazoxanide, and retapamulin. At the end of drug treatment, the medium was removed, the CCK-8 solution was added into each well at 100 μL/well and incubated for 1.5 h at 37°C, and the optical density (OD) was measured at 450 nm using a microplate reader (BioTek).

[4] = test system: DU 145 (KLF5 null) cells expressing KLF5; assay: CCK-8 cell viability assay; type: cell-based; conditions: Homo sapiens, CCK-8, 48 h
Experimental: as §1

[5] = test system: PC-3 (KLF5 null) cells expressing KLF5^K369R; assay: CCK-8 cell viability assay; type: cell-based; conditions: Homo sapiens, CCK-8, 48 h
Experimental: as §1

[6] = test system: DU 145 (KLF5 null) cells expressing KLF5^K369R; assay: CCK-8 cell viability assay; type: cell-based; conditions: Homo sapiens, CCK-8, 48 h
Experimental: as §1

[7] = test system: PC-3-KLF5, PC-3-KQ, DU 145-KLF5 and DU 145-KQ cell spheroids; assay: 3D spheroid invasion assay, KLF5^K369Q- versus KLF5-expressing cells; type: cell-based, human; conditions: 0-10 μM
Experimental: The invasion assay was performed as previously described. Briefly, PC-3-KQ cells at 80-90% confluency were plated onto 384-well round bottom plates with ultra-low attachment (Cat #: 4516, Corning) at 500 cells per well in 80 μL medium. The plates were then centrifuged at 320 g for 4 min to cluster cells in the bottom of wells and incubated for 3 days. On the fourth day, 40 μL medium was removed from each well, 40 μL of the matrigel-medium mixture was added to each well, and cells were cultured for another 3 days. The matrigel (Cat #: 354234, Corning) was from Corning, and the medium contained 1% FBS. At the end of the incubation, images were taken using a phase contrast microscope (Eclipse Ti2, Nikon, Tokyo, Japan) with 10× object lenses, and the total area of cells and the core sphere area of cells (Fig. 1a) were measured using the Image J software. The invading area was calculated using the following formula: invasion area = total area of cells – core sphere area.
Figure S2. The effect of NTZ on acetylated (KQ) and non-mutated KLF5 cell invasion. (a) The effect of NTZ on the invasion of PC-3-KLF5, PC-3-KQ, DU 145-KLF5 and DU 145-KQ cell spheroids at different concentrations (0-10 μM) and quantitative analysis (b). *, p < 0.05; ***, p < 0.001.

[8] = test system: RAW264.7 cells; assay: Osteoclast differentiation with conditioned medium from NTZ-treated PC-3-KQ cells; type: cell-based; conditions: CM from PC-3-KQ cells treated at 2.5 or 5 μM for 36 h; RANKL 10 ng/mL; 7 days
Experimental: In the second in vitro assay, we used conditioned medium (CM) from NTZ-treated Ac-KLF5-expressing cells. PC-3-KQ cells were seeded in 6-well plates at 1 × 10^5 cells per well and cultured overnight. […] Subsequently, the conditioned media (CM) was collected from each group, centrifugated, filtered, aliquoted, and stored at -80°C for further use or used immediately in the co-cultured experiments. […] RAW264.7 cells in 96-well plates with 24-h culture were incubated with the CM-containing medium for 7 days, with the medium replaced every 2 days. The TRAP staining assay was performed to determine the number of differentiated osteoclasts according to the manufacturer's instructions.

[9] = test system: osteoclasts in mouse femurs; assay: TRAP staining of bone tissue sections; type: in vivo, Balb/c nude mice; conditions: compared to the vehicle group
Experimental: The procedure for TRAP staining in tissues was described in our previous study. Briefly, deparaffinized and hydrated bone sections were incubated in 0.2 M acetic acid for 20 min and then in 0.2 M acetic acid containing the fast red TR salt (1.1 mg/mL) and naphthol AS-MX phosphate (0.5 mg/mL) for about 45 min at 37°C. When TRAP-positive cells turn red, as monitored using microscopy, slides were counterstained with hematoxylin and mounted with coverslips using glycerin. Slides were then scanned and analyzed as described above.

[10] = test system: RAW264.7 cells co-cultured with PC-3-KQ cells; assay: Osteoclast differentiation in co-culture of RAW264.7 and PC-3-KQ cells; type: cell-based; conditions: 1.25, 2.5, 5 μM, 7 days
Experimental: The third in vitro assay involved direct co-culture between RAW264.7 cells and cancer cells. RAW264.7 cells were seeded in 96-well plates at 700 cells per well and allowed to adhere for 12 h. PC-3-KQ cells were added to each well at 300 cells/well, and the culture continued for 12 h. NTZ was added to treat cells for 48 h at various final concentrations (0, 1.25, 2.5, 5 μM). The RAW264.7 medium was mixed with the PC-3 medium at 7:3, and the mixture was used to replace the culture medium every 2 days. After 7 days, the osteoclast differentiation was determined as described above.

## CC(=O)Oc1ccccc1C(=O)Nc1ncc([N+](=O)[O-])s1 [Nitazoxanide]
[1]
  KLF5^K369Q-bound DNA of MYBL2 promoter (-1242 to -1251): significantly decreased KLF5^K369Q-bound DNA
[2]
  cytotoxicity (cell viability): did not exhibit detectable cytotoxicity
[3]
  IC50: 7 ± 0.7 µM
[4]
  IC50: 55.6 ± 1.4 µM
[5]
  IC50: 11.4 ± 1 µM
[6]
  IC50: 49.2 ± 10.1 µM
[7]
  invasion inhibition in KLF5^K369Q- versus KLF5-expressing cells: more potent in invasion inhibition
[8]
  number of TRAP^+ multinucleated cells: significantly reduced
[9]
  number of TRAP^+ cells in mouse femurs: significantly reduced the number of TRAP^+ cells
[10]
  number of TRAP^+ multinucleated cells: significantly decreased
